Laboratory results as given in patent US9346741B2, “Polyamine transport selective therapeutic agents with enhanced stability” (University of Central Florida Research Foundation, Inc., priority 2012, dated 2016).
Where two headings read alike, the source gives them in different places.

Columns and labels:
CHO-MG* cells = experiment: Cytotoxicity IC50 determination (MTS) in polyamine-transport-deficient CHO-MG* cells; assay type: cell-based, Chinese hamster; conditions: Cricetulus griseus, CHO-MG, 48 h at 37° C.
Source text: (§1) CHO cells were chosen along with a mutant cell line (CHO-MG*) to comment on how the synthetic conjugates gain access to the cells.^2c-e, 6 As discussed earlier, the CHO-MG cell line is polyamine-transport deficient and represents a model for alternative modes of entry (other than PTS) including passive diffusion or use of another transporter. The CHO cell line on the other hand, represents cells with high polyamine transport activity.^7, 10c A comparison of toxicity in these two CHO cell lines allowed for a screen that would detect selective use of the polyamine transporter. This is seen where high utilization of the PTS would be very toxic to CHO cells, however, there would not be the same level of toxicity found in CHO-MG cells.^2c-e, 6 Ultimately, a CHO-MG/CHO IC50 can be determined where a high ratio would be achieved for highly PTS selective compounds.
(§2) CHO and CHO-MG cells were grown in RPMI 1640 medium supplemented with 10% fetal calf serum and 1% penicillin/streptomycin. Note: the media must contain L-proline (2 μg/mL) for proper growth of the CHO-MG cells. MALME-3M cells were grown in RPMI 1640 medium supplemented with 10% FBS and 1% penicillin/streptomycin. […] Cells in early to mid-log phase were used.
(§3) Cell growth was assayed in sterile 96-well microtiter plates (Costar 3599, Corning, N.Y., USA). CHO and CHO-MG* cells were plated at 10,000 cells/mL. MALME-3M and MALME-3 cells were plated at 5,000 cells/mL. Drug solutions (10 μL per well) of appropriate concentration were added after an overnight incubation for each CHO cell line (90 μL). 48 h MALME-3M experiments were conducted using 10% Nu-Serum IV, and 96 h MALME-3M and MALME-3 experiments were conducted using 10% FBS. After exposure to the drug for 48 h (CHO, CHO-MG*, and MALME-3M) or 96 h (MALME-3M and MALME-3), cell growth was determined by measuring formazan
(§4) formation from 3-(4,5-dimethylthiazol-2-yl)-5-(3-carboxymethoxyphenyl)-2-(4-sulphenyl)-2H-tetrazolium) inner salt (MTS) using a SynergyMx Biotek microplate reader for absorbance ([…]) measurements.^24

CHO cells = experiment: cells; assay type: cell-based; conditions: Cricetulus griseus, CHO, 48 h at 37° C.
Source text: as §1, §2, §3, §4

[1] = test system: polyamine transport system (PTS), CHO-MG* vs CHO cells; experiment: CHO-MG*/CHO IC50 ratio, a measure of PTS selectivity; assay type: cell-based, Chinese hamster; conditions: 48 h
Source text: Compounds with high CHO-MG/CHO IC50 ratios are considered PTS selective.
as §1

MALME-3 cells [2] = experiment: Cytotoxicity IC50 determination (MTS) in MALME-3 cells; assay type: cell-based, human; conditions: Homo sapiens, MALME-3; 96 h at 37° C.; 1 mM AG; 10% FBS
Procedure: (§5) Armed with this insight, compounds 5a-8b were evaluated in the MALME-3M (melanoma) cell line and its non-cancerous counterpart MALME-3 obtained originally from the same patient. These matched cell lines provided a method to assess PTS selectivity for the cancer line (MALME-3M) over the non-cancerous cell line (MALME-3).
(§6) CHO and CHO-MG cells were grown in RPMI 1640 medium supplemented with 10% fetal calf serum and 1% penicillin/streptomycin. Note: the media must contain L-proline (2 μg/mL) for proper growth of the CHO-MG cells. MALME-3M cells were grown in RPMI 1640 medium supplemented with 10% FBS and 1% penicillin/streptomycin. All cells were grown at 37° C. under a humidified 5% CO2 atmosphere Aminoguanidine (1 mM) was added to the growth medium to prevent oxidation of the drugs by the enzyme (bovine serum amine oxidase) present in calf serum. Cells in early to mid-log phase were used.
as §3, §4

MALME-3M cells [3] = experiment: Cytotoxicity IC50 determination (MTS) in MALME-3M cells; assay type: cell-based, human; conditions: Homo sapiens, Malme-3M
Procedure: as §5, with “(MALME-3). […]” for “(MALME-3).”
as §6, §3, §4

[4] = test system: MALME-3M (melanoma) vs MALME-3 (normal) cells; experiment: MALME-3/MALME-3M IC50 ratio, a measure of selectivity; assay type: cell-based, human; conditions: 96 h; 1 mM AG
Source text: These matched cell lines provided a method to assess PTS selectivity for the cancer line (MALME-3M) over the non-cancerous cell line (MALME-3).

MALME-3M cells [5] = experiment: Spermidine rescue experiments in MALME-3M cells; assay type: cell-based, human; conditions: drug at its IC50 concentration, co-dosed 10 μM spermidine; cell line not given
Procedure: (§7) In order to validate that these drugs were toxic due to their use of the polyamine transport system, spermidine rescue experiments were conducted. Spermidine is a native polyamine and uses the PTS for cell entry. High concentrations of spermidine should outcompete the PTS-targeting drugs for cell entry. In this regard, spermidine when dosed at a non-toxic concentration should rescue the cells from the toxic effects of the PTS targeting agents. […] Both the anthryl and naphthyl systems when dosed at their IC50 concentrations gave >92% viability at 10 μM spermidine validating their use of the PTS. Rescue was observed from the initial 50% viability to >92% viability after co-dosing 10 μM spermidine.
(§8) As stated above, in an effort to determine if the cytotoxicities seen for compounds 6-8 were polyamine transport related, MALME-3M and MALME-3 were dosed near the IC50 value of each drug. These cells were also treated with increasing amounts of spermidine to see if it could outcompete compounds 6-8 for cellular entry and thus rescue the cells. […] This supports the premise that these compounds gain access to these cells primarily via the PTS. […] Since the viability of MALME-3M cells could be partially rescued by spermidine, compounds 8a and 8b may gain access via the PTS and via non-PTS related pathway(s).

MALME-3 cells [6] = experiment: Spermidine rescue experiments in MALME-3 cells; assay type: cell-based, human; conditions: dosed near the IC50 value; increasing spermidine
Procedure: as §7, §8

[7] = test system: 60 human cancer cell lines; experiment: NCI 60 cell-line screen; assay type: cell-based; conditions: 10 μM; 48 h
Procedure: Once compounds 6a-b, 7a-b, and 8a-8b were evaluated in CHO and CHO-MG*, these compounds were sent to the National Cancer institute (NCI) to conduct its 60 cell-line screen to determine if these compounds could also be potent anti-cancer agents for human cancer cell lines. […] As shown in FIGS. 2A-2C, dose response curves were generated based upon the 60 cell-line screen at different molar concentrations of each PTS targeting agent 6b, 7b, and 8b.
To generate FIGS. 2A-2C, the respective drug was dosed at 10 μM into each human cancer cell line and cell viability was assessed after a 48 h incubation at 37° C. in an environment of 5% CO2, 95% air and 100% relative humidity. A more descriptive methodology can be found at the NCI website: http://dtp.nci.nih.gov/branches/btb/ivclsp.html. Cell lines which gave bar graphs which extend to the right of the central line were more sensitive to the drug than cell lines which extended to the left of the center line.

[8] = test system: 60 human cancer cell lines; experiment: NCI 60 cell-line screen; assay type: cell-based; conditions: 5-dose assay

Molecule `CNCCCCNCCCCNCc1ccc(CNCCCCNCCCCNC)cc1` [Compound 8b, N1,N1′-(1,4-Phenylenebis(methylene))bis(N4-(4-(methylamino)butyl)butane-1,4-diamine)] has an IC50 (CHO-MG* cells; 1 mM AG 24 h prior to drug addition, read-out: CHO-MG* IC50 (μM) w/AG) of 51.5 µM, an IC50 (CHO-MG* cells; without AG, read-out: CHO-MG* IC50 (μM) w/o AG) of 54 µM and an IC50 (CHO cells; 1 mM AG 24 h prior to drug addition, read-out: CHO IC50 (μM) w/AG) of 0.03 µM. The IC50 (CHO cells; without AG, read-out: CHO IC50 (μM) w/o AG) was 0.041 µM, the “IC50 ratio w/AG (CHO-MG*/CHO)” value ([1]; with 1 mM AG) was 1715 and the “IC50 ratio w/o AG (CHO-MG*/CHO)” value ([1]; without AG) was 1316. It also gave an IC50 (MALME-3 cells [2]) of 20 nM, an IC50 (MALME-3M cells [3]; 48 h at 37° C., 1 mM AG, 10% Nu-Serum IV, read-out: MALME-3M IC50 (μM) w/ AG) of 0.007 µM and an IC50 (MALME-3M cells [3]; 48 h at 37° C., without AG, 10% Nu-Serum IV, read-out: MALME-3M IC50 (μM) w/o AG) of 0.007 µM. For the same molecule, the IC50 (MALME-3M cells [3]; 96 h at 37° C., 1 mM AG, 10% FBS, read-out: MALME-3M IC50) was 0.01 µM, the “MALME-3/MALME-3M IC50 ratio” value [4] was 2 and the “viability at 10 μM spermidine” value (MALME-3M cells [5]) was 75%. For the same molecule, the “rescue by exogenous spermidine in MALME-3” value (MALME-3 cells [6]) was “complete rescue”, the “effect on breast cancer cell lines in the NCI 60 cell-line screen” value [7] was “exhibited an anti-proliferation effect in breast cancer cell lines, particularly the T-47D cell line” and the “effect on melanoma cell lines in the NCI 60 cell-line screen” value [7] was “inhibited the proliferation of melanoma cell lines, particularly the MALME-3M cell line”. For the same molecule, the “NCI 5-dose assay, MALME-3M cell line” value [8] was “dose dependent response”.
